This is an account of results in patent US20250057928A1, “VACCINE COMPOSITION FOR INDUCING ANTI-IL-23 ANTIBODY” (OSAKA UNIVERSITY, priority 2021, published 2025).

Assay [1] concerns rmIL-23. The assay is described as follows: Binding of monkey antiserum to rmIL-23, ELISA. Details: species or system mouse. The following applies: monkey antiserum 6 weeks after the initial administration; second statement of b202, FIG. 7(b) covers rhIL-23 and rmIL-23. The procedure: FIG. 7(a) is a graph showing the antibody titer (GMT) of serum collected over time from Macaca fascicularis administered with AJP001 conjugated peptide (SEQ ID NO: 6). FIG. 7(b) is a graph showing the binding ability to rhIL-23 and rmIL-23 of serum collected from the Macaca fascicularis administered with AJP001 conjugated peptide (SEQ ID NO: 6) at 6 weeks after the first administration. FIG. 7(c) is a graph showing the evaluation of neutralization activity of IgG derived from Macaca fascicularis administered with AJP001 conjugated peptide (SEQ ID NO: 6). FIG. 7(d) is a graph showing the results of epitope mapping of anti-IL-23 antibody induced by AJP001 conjugated peptide (SEQ ID NO: 6).
AJP001 conjugated peptide (SEQ ID NO: 6) was dissolved in physiological saline and subcutaneously administered to Macaca fascicularis (female, […], N=4) at 5 mg/body 3 times at two-week intervals. Blood was collected every two weeks from the first day of administration until week 16, and the antibody titer (GMT) and binding to IL-23 of the serum at each time point were measured by the ELISA method (same method as in Example 1; the secondary antibody used was Anti-Monkey IgG (Abcam)). In FIG. 7, “*” means P<0.05.
In general terms: ELISA stands for enzyme-linked immunosorbent assay.

Assay [2] deals with epitope peptide. Nature of the assay: Antibody titer (GMT) of serum of Macaca fascicularis, ELISA. The assay is classed as in vivo. The settings on record: 5 mg/body subcutaneous 3 times at two-week intervals, blood every two weeks until week 16. The procedure: AJP001 conjugated peptide having one of the B cell epitope sequences of SEQ ID NOs: 1-5 was dissolved in physiological saline and intradermally administered twice to BALB/c mice (female, 6-week-old, N=5-6) at 0.5 mg/body at 2-week intervals. Blood was collected before administration and 5 weeks after the initial administration, and the antibody titer against each AJP001 conjugated peptide and the binding ability to recombinant mouse IL-23 protein (rmIL-23) were measured by the ELISA method. […] After washing the wells with PBS-T, TMB solution (SIGMA) was added, the wells were allowed to stand for 30 min in the dark, the reaction was stopped by adding 0.5M H2SO4, and the absorbance at 450 nm was measured using a plate reader. The serum dilution rate that gave 1/2 (OD=1.75) of the maximum absorbance was defined as the antibody titer, and the geometric mean titer: GMT was calculated from the individual values. Binding to IL-23 protein was measured by the ELISA method in the same manner as the antibody titer, using rmIL-23 (Antibodies-online GmbH) as the solid-phased antigen and goat serum for blocking. […] Blood was collected every two weeks from the first day of administration until week 16, and the antibody titer (GMT) and binding to IL-23 of the serum at each time point were measured by the ELISA method (same method as in Example 1; the secondary antibody used was Anti-Monkey IgG (Abcam)). […]

For assay [3], the system named is hairless rats. The assay is described as follows: Psoriasis model, 2% imiquimod (IMQ) applied to auricle of hairless rats. The assay is classed as in vivo, rat. The following applies: 1 mg/body 3 times. The procedure: AJP001 conjugated peptide (SEQ ID NO: 2) was dissolved in physiological saline and intradermally administered to hairless rats (female, 6-week-old, N=6) at 1 mg/body 3 times at two-week intervals. From 6 weeks after the initial administration, 2% imiquimod (IMQ) was intermittently applied to the auricle 4 times in total at 1-day intervals to create a psoriasis model. A 2% IMQ application group was provided as a control group. The drug efficacy was evaluated by measuring the thickness of the auricle with a thickness gauge (Mitutoyo Corporation) from the first day of IMQ application to the eighth day. Furthermore, on the 8th day, histopathological evaluation of the auricular tissue was performed. Specifically, the collected auricle was fixed with 10% neutral formalin, and then a specimen was prepared according to a conventional method and stained with HE. HE-stained specimens were observed under a microscope, and inflammatory cell infiltration, edema, and thickness were scored in 4 stages (0: normal, 1: mild, 2: intermediate, 3: severe) and the total score was calculated. Furthermore, the antibody titer (GMT) of the serum at the time point of 6 weeks was measured by the ELISA method (same method as in Example 1. Anti-Rat IgG (GE Healthcare) was used as the secondary antibody). […]

Where no end group is shown, it is not given here.

For the substance “SEQ ID NO 6: AJP001-Ahx-B cell epitope peptide conjugate; epitope SPSQPWQR (human 151-158) (not fully specified (N-terminus); listed as Homo sapiens)”, the “binding to rmIL-23” value in assay [1] was “not observed”. The “antibody titer (GMT) over time” value in assay [2] is “increased from 2 weeks after the initial administration and persisted until 16 weeks”.
On to “SEQ ID NO 2: AJP001-Ahx-B cell epitope peptide conjugate; epitope SSSQQWQR (mouse 152-159) (not fully specified (N-terminus); listed as Mus musculus)”, for which the “increase in auricular thickness” value in assay [3] (2% IMQ 4 times from week 6, day 1 to 8) was “suppressive action”. Further, the “inflammatory changes of tissue (auricle, HE score)” value in assay [3] (2% IMQ, day 8) is “suppressive action”.
